Experimental data published in patent US20130158080A1, “METHODS FOR TREATING HYPERTENSION IN BLACK PATIENTS” (Takeda Pharmaceuticals U.S.A., Inc., priority 2011, published 2013).

Test system: subjects with moderate to severe hypertension
Assay: Same study: safety and tolerability (adverse events, laboratory tests, discontinuations)
Set-up: species or system human
Details: in vivo
Text: Randomization was stratified by subject's race: Black and non-Black. Before initiation of treatment, all subjects participated in a 2-week, single-blind, placebo Run-in Period (Days −14 to −1). […] Subjects taking previous antihypertensive agents were required to participate in a 3 week Washout Period (Days −21 to −1).
Safety variables included adverse events, vital signs (including orthostatic vital signs), 12-lead electrocardiogram (ECG) findings, and clinical laboratory test results.
Treatment-emergent adverse events (TEAEs) were tabulated, and vital signs and 12-lead ECG findings were summarized with descriptive statistics. All safety data were presented in the listings.

“azilsartan medoxomil potassium plus chlorthalidone [TAK-491CLD]” was tested, and the “Mean increases in serum creatinine, blood urea nitrogen, and serum uric acid” value was “more common”.
